System: female subjects with normal hepatic function, mild, moderate or severe hepatic impairment
Assay: Safety and tolerability (TEAEs, clinical laboratory, vital signs, physical examination) after a single oral dose of 20 mg E4 monohydrate in the hepatic impairment study
Format: in vivo, human
Conditions: single oral 20 mg
Method: This was a Phase 1, multi-centre, open-label, PK, and safety study of a single oral dose of 20 mg E4 monohydrate in female subjects with normal hepatic function (Group 1), mild hepatic impairment (Group 2), moderate hepatic impairment (Group 3), and severe hepatic impairment (Group 4), as defined using the Child-Pugh classification at Screening.
Safety and tolerability assessments consisted of treatment-emergent AEs (TEAEs), clinical laboratory, vital signs, physical examination, and gynecological examination. Assessments were performed in accordance with Table 2 and Table 3 in Section 2.5.1.
AEs/TEAEs were recorded after signing of the ICF until completion of the follow up visit. Any clinically significant observations in results of clinical laboratory, vital signs, or physical examinations were recorded as AEs.
A TEAE is defined as any event not present prior to administration of the study drug or any event already present that worsens in either severity or frequency following exposure to the study drug.
The below listed tests were to be performed by the local laboratories at time points indicated in the Schedule of Assessments (Table 2).
Systolic and diastolic blood pressure and pulse were recorded after the subject had been resting for at least 5 minutes in the supine position at time points indicated in the Schedule of Assessments (Table 2). These assessments were made using an automated device. Body temperature and respiratory rate were measured subsequently.
A complete physical examination consisting of a review of all body systems was performed at time points indicated in the Schedule of Assessments (Table 2). A symptom-directed physical examination could be conducted at any time per Investigator's discretion.
2.6.2.2 Evaluation of Safety and Tolerability Safety and tolerability were assessed through TEAEs, clinical laboratory, vital signs, and physical examination findings, and any other parameter that was relevant for safety assessment.
A listing of all individual AEs is provided. Summary tables of TEAEs are presented by system organ class (SOC) based on the MedDRA terminology list (preferred terms): a table containing the number of subjects experiencing AEs by hepatic function, a table containing the number of subjects experiencing SAEs by hepatic function (if applicable), a table by hepatic function and relationship, and a table by hepatic function and severity.

[1] = Mild hepatic impairment (N = 8)
[2] = Moderate hepatic impairment (N = 8)
[3] = Normal hepatic function (N = 8)

Structure (SMILES): C[C@]12CC[C@@H]3c4ccc(O)cc4CC[C@H]3[C@@H]1[C@@H](O)[C@@H](O)[C@@H]2O [E4 monohydrate, estetrol monohydrate]
- TEAE by severity: Back pain, severity Mild [1]: 0 (0.0) n (%)
- TEAE by severity: Back pain, severity Moderate [1]: 0 (0.0) n (%)
- TEAE by severity: Diarrhea, severity Mild [1]: 0 (0.0) n (%)
- TEAE by severity: Diarrhea, severity Moderate [1]: 0 (0.0) n (%)
- TEAE by severity: Gastrointestinal disorders, severity Mild [1]: 0 (0.0) n (%)
- TEAE by severity: Gastrointestinal disorders, severity Moderate [1]: 0 (0.0) n (%)
- TEAE by severity: General disorders and administration site conditions, severity Mild [1]: 0 (0.0) n (%)
- TEAE by severity: Haemarthrosis, severity Mild [1]: 1 (12.5) n (%)
- TEAE by severity: Headache, severity Mild [1]: 0 (0.0) n (%)
- TEAE by severity: Headache, severity Moderate [1]: 0 (0.0) n (%)
- TEAE by severity: Hypertension, severity Mild [1]: 2 (25.0) n (%)
- TEAE by severity: Musculoskeletal and connective tissue disorders, severity Mild [1]: 1 (12.5) n (%)
- TEAE by severity: Musculoskeletal and connective tissue disorders, severity Moderate [1]: 0 (0.0) n (%)
- TEAE by severity: Nervous system disorders, severity Mild [1]: 0 (0.0) n (%)
- TEAE by severity: Nervous system disorders, severity Moderate [1]: 0 (0.0) n (%)
- TEAE by severity: Pain in extremity, severity Mild [1]: 0 (0.0) n (%)
- TEAE by severity: Pancreatitis, severity Moderate [1]: 0 (0.0) n (%)
- TEAE by severity: Pyrexia, severity Mild [1]: 0 (0.0) n (%)
- TEAE by severity: Renal and urinary disorders, severity Mild [1]: 0 (0.0) n (%)
- TEAE by severity: Renal impairment, severity Mild [1]: 0 (0.0) n (%)
- TEAE by severity: Vascular disorders, severity Mild [1]: 2 (25.0) n (%)
- TEAE: Back pain [1]: 0 (0.0) n (%)
- TEAE: Diarrhea [1]: 0 (0.0) n (%)
- TEAE: Gastrointestinal disorders [1]: 0 (0.0) n (%)
- TEAE: General disorders and administration site conditions [1]: 0 (0.0) n (%)
- TEAE: Haemarthrosis [1]: 1 (12.5) n (%)
- TEAE: Headache [1]: 0 (0.0) n (%)
- TEAE: Hypertension [1]: 2 (25.0) n (%)
- TEAE: Musculoskeletal and connective tissue disorders [1]: 1 (12.5) n (%)
- TEAE: Nervous system disorders [1]: 0 (0.0) n (%)
- TEAE: Pain in extremity [1]: 0 (0.0) n (%)
- TEAE: Pancreatitis [1]: 0 (0.0) n (%)
- TEAE: Pyrexia [1]: 0 (0.0) n (%)
- TEAE: Renal and urinary disorders [1]: 0 (0.0) n (%)
- TEAE: Renal impairment [1]: 0 (0.0) n (%)
- TEAE: Total Subjects with at Least One TEAE [1]: 2 (25.0) n (%)
- TEAE: Vascular disorders [1]: 2 (25.0) n (%)
- TEAE by severity: Back pain, severity Mild [2]: 0 (0.0) n (%)
- TEAE by severity: Back pain, severity Moderate [2]: 0 (0.0) n (%)
- TEAE by severity: Diarrhea, severity Mild [2]: 2 (25.0) n (%)
- TEAE by severity: Diarrhea, severity Moderate [2]: 0 (0.0) n (%)
- TEAE by severity: Gastrointestinal disorders, severity Mild [2]: 2 (25.0) n (%)
- TEAE by severity: Gastrointestinal disorders, severity Moderate [2]: 0 (0.0) n (%)
- TEAE by severity: General disorders and administration site conditions, severity Mild [2]: 1 (12.5) n (%)
- TEAE by severity: Haemarthrosis, severity Mild [2]: 0 (0.0) n (%)
- TEAE by severity: Headache, severity Mild [2]: 1 (12.5) n (%)
- TEAE by severity: Headache, severity Moderate [2]: 1 (12.5) n (%)
- TEAE by severity: Hypertension, severity Mild [2]: 0 (0.0) n (%)
- TEAE by severity: Musculoskeletal and connective tissue disorders, severity Mild [2]: 1 (12.5) n (%)
- TEAE by severity: Musculoskeletal and connective tissue disorders, severity Moderate [2]: 0 (0.0) n (%)
- TEAE by severity: Nervous system disorders, severity Mild [2]: 1 (12.5) n (%)
- TEAE by severity: Nervous system disorders, severity Moderate [2]: 1 (12.5) n (%)
- TEAE by severity: Pain in extremity, severity Mild [2]: 1 (12.5) n (%)
- TEAE by severity: Pancreatitis, severity Moderate [2]: 0 (0.0) n (%)
- TEAE by severity: Pyrexia, severity Mild [2]: 1 (12.5) n (%)
- TEAE by severity: Renal and urinary disorders, severity Mild [2]: 0 (0.0) n (%)
- TEAE by severity: Renal impairment, severity Mild [2]: 0 (0.0) n (%)
- TEAE by severity: Vascular disorders, severity Mild [2]: 0 (0.0) n (%)
- TEAE: Back pain [2]: 0 (0.0) n (%)
- TEAE: Diarrhea [2]: 2 (25.0) n (%)
- TEAE: Gastrointestinal disorders [2]: 2 (25.0) n (%)
- TEAE: General disorders and administration site conditions [2]: 1 (12.5) n (%)
- TEAE: Haemarthrosis [2]: 0 (0.0) n (%)
- TEAE: Headache [2]: 2 (25.0) n (%)
- TEAE: Hypertension [2]: 0 (0.0) n (%)
- TEAE: Musculoskeletal and connective tissue disorders [2]: 1 (12.5) n (%)
- TEAE: Nervous system disorders [2]: 2 (25.0) n (%)
- TEAE: Pain in extremity [2]: 1 (12.5) n (%)
- TEAE: Pancreatitis [2]: 0 (0.0) n (%)
- TEAE: Pyrexia [2]: 1 (12.5) n (%)
- TEAE: Renal and urinary disorders [2]: 0 (0.0) n (%)
- TEAE: Renal impairment [2]: 0 (0.0) n (%)
- TEAE: Total Subjects with at Least One TEAE [2]: 4 (50.0) n (%)
- TEAE: Vascular disorders [2]: 0 (0.0) n (%)
- TEAE by severity: Back pain, severity Mild [3]: 0 (0.0) n (%)
- TEAE by severity: Back pain, severity Moderate [3]: 1 (12.5) n (%)
- TEAE by severity: Diarrhea, severity Mild [3]: 0 (0.0) n (%)
- TEAE by severity: Diarrhea, severity Moderate [3]: 1 (12.5) n (%)
- TEAE by severity: Gastrointestinal disorders, severity Mild [3]: 0 (0.0) n (%)
- TEAE by severity: Gastrointestinal disorders, severity Moderate [3]: 2 (25.0) n (%)
- TEAE by severity: General disorders and administration site conditions, severity Mild [3]: 0 (0.0) n (%)
- TEAE by severity: Haemarthrosis, severity Mild [3]: 0 (0.0) n (%)
- TEAE by severity: Headache, severity Mild [3]: 0 (0.0) n (%)
- TEAE by severity: Headache, severity Moderate [3]: 0 (0.0) n (%)
- TEAE by severity: Hypertension, severity Mild [3]: 0 (0.0) n (%)
- TEAE by severity: Musculoskeletal and connective tissue disorders, severity Mild [3]: 0 (0.0) n (%)
- TEAE by severity: Musculoskeletal and connective tissue disorders, severity Moderate [3]: 1 (12.5) n (%)
- TEAE by severity: Nervous system disorders, severity Mild [3]: 0 (0.0) n (%)
- TEAE by severity: Nervous system disorders, severity Moderate [3]: 0 (0.0) n (%)
- TEAE by severity: Pain in extremity, severity Mild [3]: 0 (0.0) n (%)
- TEAE by severity: Pancreatitis, severity Moderate [3]: 1 (12.5) n (%)
- TEAE by severity: Pyrexia, severity Mild [3]: 0 (0.0) n (%)
- TEAE by severity: Renal and urinary disorders, severity Mild [3]: 0 (0.0) n (%)
- TEAE by severity: Renal impairment, severity Mild [3]: 0 (0.0) n (%)
- TEAE by severity: Vascular disorders, severity Mild [3]: 0 (0.0) n (%)
